From US10119966B2, “Method of detecting auto-antibodies from patients suffering from rheumatoid arthritis, a peptide and assay kit” (STICHTING VOOR DE TECHNISCHE WETENSCHAPPEN, priority 2001, dated 2018)
Non-standard residues stand in square brackets, D forms with d. No end group written: not given here. Cit = NC(=O)NCCC[C@H](N)C(=O)O

Assays:
Type in all cases: binding, human
[1] = tested on: sera from control patients and normal donors; assay: ELISA with sera from patients with other diseases and normal sera (specificity); settings: for % positive sera: cyclic peptide; for Specificity [%] cyclic: cyclic variant; for Specificity [%] cyclic / Specificity [%] linear: control patients and normal donors of Table 2; for Specificity [%] linear: linear variant
Experimental: (§1) The most interesting peptides were synthesised in a slightly larger quantity to form a linear and a cyclic variant, and in most cases in a citrulline and arginine (=control) variant. These peptides were tested for reactivity with a series of sera from RA patients. The peptides were coated to ELISA plates and incubated with sera from RA patients. Each serum was tested in duplicate. Sera from healthy persons were used as negative control.
The above table represents ELISAs with sera obtained from patients suffering from RA and from patients suffering from various other autoimmune diseases. […] The arginine variant of peptide 0002-36 (R on position 0 and +2, i.e., instead of Cit in the formula) was also tested and shown to be negative with all tested RA and normal sera.
(§2) Using the above-described methods, seven XG peptide units were tested for reactivity with the 318 sera mentioned in Table 2 from patients suffering from rheumatoid arthritis. The specificity was determined with the aid of sera mentioned in Table 2 from control patients and normal donors.
(§3) In accordance with the methods described in this document, five XnonG peptide units were tested for reactivity with the same 318 sera mentioned in Table 2 from patients suffering from rheumatoid arthritis. Specificity was again determined with the aid of the sera mentioned in Table 2 from control patients and normal donors.

[2] = tested on: autoantibodies from patients suffering from rheumatoid arthritis (RA sera); assay: ELISA of coated peptides with sera from RA patients; settings: for Sensitivity [%] cyclic / Sensitivity [%] Linear: 318 RA sera; for Sensitivity [%] Linear: linear variant; for assessment of cyclic variants (in words): cysteine-bromoacetic acid cyclisation
Experimental: as §1, with “control. […]” for “control.”
as §2, §3

[3] = tested on: XG-negative sera (RA sera comprising no XG reactive antibodies); assay: ELISA of XnonG peptides with RA sera that do not react with XG peptides; settings: for Sensitivity [%] cyclic: cyclic variant; for Sensitivity [%] cyclic / Sensitivity [%] Linear: 80 of the 318 RA sera that did not react with any XG peptide of Table 6; for Sensitivity [%] Linear: linear variant
Experimental: as §1
The percentages mentioned in table 8 therefore show the percentage of the sera that did comprise antibodies to XnonG peptide units but comprised no XG reactive antibodies.

[4] = ELISA with 186 RA sera, cyclic variants
[5] = XnonG peptide units, cyclic variant
[6] = XG peptide units, cyclic variant
[7] = two cohorts of RA sera, in total 318 sera

Substance: 0002-36 (cyclic): cyclic variant of peptide 0002-36, cyclisized by the cysteine-bromoacetic acid method (HQFRF[Cit]G[Cit]SRAA; thioether (positions not given here); not fully specified (bridges); printed as H Q F R F Cit G Cit S R A A; also: cyclised by cysteine-bromoacetic acid method, no Cys in given chain, ring places not given here)
- % positive sera ([1]; Colitis ulcerosa sera, N=40): 0%
- % positive sera ([1]; Crohn's disease sera, N=40): 0%
- % positive sera ([1]; Infectious diseases (malaria, chlamydia, mycoplasma, etc.) sera, N=250): 1%
- % positive sera ([1]; Normal human serum, N=84): 0%
- % positive sera ([1]; Osteoarthritis sera, N=29): 0%
- % positive sera ([1]; PM, Polymyositis sera, N=11): 0%
- % positive sera ([1]; Prim Sjögren's syndrome sera, N=34): 3%
- % positive sera ([1]; Psoriasis sera, N=10): 0%
- % positive sera ([1]; SSc Scleroderma sera, N=10): 0%
- % positive sera ([1]; Systemic Lupus Erythematodes sera, N=24): 0%
- % positive sera ([1]; Vasculitis sera, N=30): 0%
- positive sera ([2]; ELISA with 132 RA sera): 71%
- positive sera (number/total) ([2]; ELISA with 132 RA sera): 94/132
- positive sera [2, 4]: 71%
- % positive sera ([2]; RA sera, N=318, cyclic peptide): 71%

Substance: 0002-63 (cyclic): cyclic variant of peptide 0002-63 (HQFRF[Cit]GWSRAA; thioether (positions not given here); also: cyclised by cysteine-bromoacetyl thioether, Cys and bromoacetyl not shown in chain)
- positive sera [2, 4]: 71%

Substance: A R F Q M Cit H Cit R L I R (ARFQM[Cit]H[Cit]RLIR) [0107-35]
- reacts with % of the sera that are not reactive with cyclic 0002-36 ([3]; cyclic form): 18%
- Sensitivity [%] cyclic [3]: 18%
- Sensitivity [%] Linear [3]: 17%
- Specificity [%] cyclic ([1]; XnonG peptide units): 99%
- Specificity [%] linear ([1]; XnonG peptide units): 98%
- Sensitivity [%] cyclic [2, 5]: 61%
- Sensitivity [%] Linear ([2]; XnonG peptide units): 52%

Substance: A R F Q M R H Cit R L I R (ARFQMRH[Cit]RLIR) [0113-30]
- Sensitivity [%] cyclic [3]: 19%
- Sensitivity [%] Linear [3]: 18%
- Specificity [%] cyclic ([1]; XnonG peptide units): 100%
- Specificity [%] linear ([1]; XnonG peptide units): 99%
- Sensitivity [%] cyclic [2, 5]: 71%
- Sensitivity [%] Linear ([2]; XnonG peptide units): 49%

Substance: G V Y L V R Cit L Cit M M R [0218-36]
- Sensitivity [%] cyclic [3]: 17%
- Sensitivity [%] Linear [3]: 17%
- Specificity [%] cyclic ([1]; XnonG peptide units): 98%
- Specificity [%] linear ([1]; XnonG peptide units): 98%
- Sensitivity [%] cyclic [2, 5]: 70%
- Sensitivity [%] Linear ([2]; XnonG peptide units): 50%

Substance: GFFSA[Cit]GHRPLD [0101-7]
- reacted with % of RA sera ([2]; cyclic variant, 186 RA-sera): 45%
- reacted with % of the sera ([2]; linear peptide): 55%

Substance: H Q F R F Cit G Cit S R A A (HQFRF[Cit]G[Cit]SRAA) [0002-36 (linear)]
- positive sera ([2]; ELISA with 132 RA sera): 61%
- positive sera (number/total) ([2]; ELISA with 132 RA sera): 80/132

Substance: H Q F R F Cit G Cit S R A A (HQFRF[Cit]G[Cit]SRAA) [0002-36]
- Specificity [%] cyclic ([1]; XG peptide units): 99%
- Specificity [%] linear ([1]; XG peptide units): 99%
- reactivity with RA sera (in words) [2]: very satisfactory
- Sensitivity [%] cyclic [2, 6]: 71%
- Sensitivity [%] Linear ([2]; XG peptide units): 61%
- assessment of cyclic variants (in words) ([2]; cyclic variants): of interest
- OD-values, cyclic versus linear variant [2, 7]: much higher
- frequency of reaction, cyclic versus linear variant [2, 7]: react more frequently (and better) than the linear variant

Substance: H Q K R G Cit G W S R A A (HQKRG[Cit]GWSRAA) [0002-27]
- Specificity [%] cyclic ([1]; XG peptide units): 98%
- Specificity [%] linear ([1]; XG peptide units): 98%
- Sensitivity [%] cyclic [2, 6]: 71%
- Sensitivity [%] Linear ([2]; XG peptide units): 56%
- assessment of cyclic variants (in words) ([2]; cyclic variants): of interest

Substance: H Q K W R Cit G R S Cit A A (HQKWR[Cit]GRS[Cit]AA) [0002-37]
- Specificity [%] cyclic ([1]; XG peptide units): 98%
- Specificity [%] linear ([1]; XG peptide units): 98%
- Sensitivity [%] cyclic [2, 6]: 70%
- Sensitivity [%] Linear ([2]; XG peptide units): 60%

Substance: H Q R R T Cit G G S R A A (HQRRT[Cit]GGSRAA) [0002-31]
- Specificity [%] cyclic ([1]; XG peptide units): 98%
- Specificity [%] linear ([1]; XG peptide units): 98%
- Sensitivity [%] cyclic [2, 6]: 69%
- Sensitivity [%] Linear ([2]; XG peptide units): 51%
- assessment of cyclic variants (in words) ([2]; cyclic variants): of interest

Substance: H Q R R V Cit G W S R A A (HQRRV[Cit]GWSRAA) [0002-29]
- Specificity [%] cyclic ([1]; XG peptide units): 98%
- Specificity [%] linear ([1]; XG peptide units): 98%
- Sensitivity [%] cyclic [2, 6]: 70%
- Sensitivity [%] Linear ([2]; XG peptide units): 57%
- assessment of cyclic variants (in words) ([2]; cyclic variants): of interest

Substance: HQFRF[Cit]GWSRAA [0002-63]
- Specificity [%] cyclic ([1]; XG peptide units): 98%
- Specificity [%] linear ([1]; XG peptide units): 98%
- reactivity with RA sera (in words) [2]: very satisfactory
- Sensitivity [%] cyclic [2, 6]: 71%
- Sensitivity [%] Linear ([2]; XG peptide units): 60%
- assessment of cyclic variants (in words) ([2]; cyclic variants): of interest

Substance: HQRKW[Cit]GASRAA [0002-32]
- Specificity [%] cyclic ([1]; XG peptide units): 98%
- Specificity [%] linear ([1]; XG peptide units): 98%
- Sensitivity [%] cyclic [2, 6]: 71%
- Sensitivity [%] Linear ([2]; XG peptide units): 61%

Substance: HQWNR[Cit]GWSRAA [0002-35]
- reactivity with RA sera (in words) [2]: very satisfactory

Substance: K P Y T V Cit K F M R R P (KPYTV[Cit]KFMRRP) [0107-32]
- further % added ([3]; cyclic peptide, added to cyclic 0107-35): 8%
- Sensitivity [%] cyclic [3]: 18%
- Sensitivity [%] Linear [3]: 15%
- Specificity [%] cyclic ([1]; XnonG peptide units): 98%
- Specificity [%] linear ([1]; XnonG peptide units): 98%
- Sensitivity [%] cyclic [2, 5]: 63%
- Sensitivity [%] Linear ([2]; XnonG peptide units): 48%

Substance: Y S F V W Cit S H A R P R (YSFVW[Cit]SHARPR) [0107-45]
- Sensitivity [%] cyclic [3]: 18%
- Sensitivity [%] Linear [3]: 16%
- Specificity [%] cyclic ([1]; XnonG peptide units): 99%
- Specificity [%] linear ([1]; XnonG peptide units): 98%
- Sensitivity [%] cyclic [2, 5]: 69%
- Sensitivity [%] Linear ([2]; XnonG peptide units): 51%

Substance: arginine variant of peptide 0002-36: R on position 0 and +2, i.e., instead of Cit in the formula; control variant (HQFRFRGRSRAA) [reference compound]
- reactivity with normal sera ([1]; all tested normal sera): negative
- reactivity with RA sera ([2]; all tested RA sera): negative
